Where a SMILES comes first, the peptide text is derived from it. Bridges are numbered along the chain shown (N, C = ends). [ ]: non-standard residue; d: D form. The star is where a group is joined. DOTA = O=C(O)CN1CCN(CC(=O)O)CCN(CC(=O)*)CCN(CC(=O)O)CC1; 1Nal = N[C@@H](Cc1cccc2ccccc12)C(=O)O; Thr(ol) = C[C@@H](O)[C@H](N)CO
Tests used:
AR42J xenograft = type: in vivo, mice
Procedure: All animal experiments were planned and performed following the national legislation by the Animal Experiments Inspectorate in Denmark. Male SCID (severe combined immunodeficiency) mice (bred in-house, age 9–12 weeks) had access to water and chow ad libitum. Anesthesia with approximately 2% isoflurane in 100% oxygen was applied and the mice were inoculated subcutaneously in the left shoulder with 1 × 10^6 AR42J cells 12–15 days before the experiment (tumor weight 364 ± 58 mg). For biodistribution, the AR42J xenografted mice were injected in the tail vein with [^68Ga]Ga-NOTA-NOC (50.2 ± 5 pmol, 627 ± 116 kBq, n = 4), [^68Ga]Ga-DOTA-NOC (42.5 ± 6 pmol, 509 ± 24 kBq, n = 3), or [^18F]AlF-NOTA-NOC (47.0 ± 10 pmol, 1017 ± 279 kBq, n = 3 for each time point). After 1 or 3 h, the mice were sacrificed and the organs were collected and weighed. The organ radioactivities were quantified in an Atomlab 950 well spectrometer which was cross calibrated to a high-purity germanium detector. The tissue uptake of injected radioactivity was determined as a percentage of the applied total injected activity per gram, %IA/g.
GraphPad Prism 6.07 was applied for statistical analysis and data fitting. One-way ANOVA and Bonferroni correction for multiple comparisons were applied for each organ. P values considered statistically significant were * p ≤ 0.05, ** p ≤ 0.01, *** p ≤ 0.001, and **** p ≤ 0.0001. The Student’s two-tailed t-test was applied for exploration statistics within a single organ-to-tumor comparison for one time point. Data are presented as the mean ± SEM.

[1] = Determination of LogP (1-octanol/Dulbecco's PBS partition); type: physicochemical
Procedure: Radiolabeled peptide (5 µL, 3–5 MBq) was added to Dulbecco’s PBS (495 µL) along with 1-Octanol (500 µL) in an Eppendorf tube. The tubes were vortexed for 5 min and centrifuged to separate phases. A volume of 10 µL of each phase was transferred to new Eppendorf tubes. The fractions were counted in an well counter (Atomlab 950) and LogP were calculated [[…]].

Structure (SMILES): C[C@@H](O)[C@@H]1NC(=O)[C@H](CCCCN)NC(=O)[C@@H](Cc2c[nH]c3ccccc23)NC(=O)[C@H](Cc2cccc3ccccc23)NC(=O)[C@@H](NC(=O)[C@@H](Cc2ccccc2)NC(=O)CN2CCN(CC(=O)O)CCN(CC(=O)O)CCN(CC(=O)O)CC2)CSSC[C@@H](C(=O)N[C@H](CO)[C@@H](C)O)NC1=O [[^68Ga]Ga-DOTA-NOC, metal not drawn, reference compound] ({DOTA}-[dF]C[1Nal][dW]KTC[Thr(ol)]; disulfide 2-7 (inferred))
- tumor-to-blood ratio, 1 h p.i. (AR42J xenograft; AR42J xenograft mice): 35
- tumor-to-liver ratio, 1 h p.i. (AR42J xenograft; AR42J xenograft mice): 3.7
- tumor uptake at 1 h p.i. (AR42J xenograft; male SCID mice, subcutaneous AR42J xenograft, tail vein injection app. 45 pmol, n = 3-4, mean ± SEM): 26.4 ± 10.8 % ID/g
- partition coefficient, LogP [1]: −1.42
